Laboratory results taken from paper PMC9321043, “Synthesis, Structure–Activity Relationships, and Parasitological Profiling of Brussonol Derivatives as New Plasmodium falciparum Inhibitors” (Pharmaceuticals, 2022).
“And” between values parts separate entries of the source, which are not always exact repeats. Identical values can stand only once.

Columns and labels:
P. falciparum K1 strain = assay: Resistance assessment, K1 strain; format: cell-based; settings: Plasmodium falciparum
[1] = test system: cytosolic Ca^2+ in P. falciparum; assay: [Ca2+]cyt measurements in isolated parasites loaded with Fluo-4AM; format: cell-based, Plasmodium falciparum
Experimental: One of the compounds identified in the structural similarity search was the cyclopiazonic acid (CPA) (Figure 8a). […] Because of that, brussonol activity on the modulation of the SERCA pump was investigated. To assess the effect of brussonol on calcium mobilization in P. falciparum intraerythrocytic stages, isolated parasites loaded with Fluo-4-AM were exposed to 10 μM brussonol in MOPS Ca^2+ buffer. […] To verify if the brussonol-elicited [Ca^2+]cyt increment originated from the endoplasmic reticulum (ER), targeting the PfSERCA pump, CPA was added before the addition of brussonol. […] In the brussonol-pretreated parasites, the addition of CPA still increased the cytosolic Ca^2 + level (30 ± 5 nM) (Figure 8d).
Isolated parasites were incubated for 1 h at 37 °C with 5 μM of Fluo-4AM in 1 mL MOPS buffer (116 mM NaCl, 5.4 mM KCl, 0.8 mM MgSO4, 5.5 mM D-glucose, 50 mM MOPS, and 2 mM CaCl2, pH 7.2), with 1 mM probenecid to minimize compartmentalization and extrusion of probe. The parasites were washed three times with the same buffer and transferred to a quartz cuvette. Intracellular calcium was measured continuously using a Hitachi F-7000 spectrofluorimeter (Tokyo, Japan) by measurement of the fluorescence (λex = 488 nm and λem = 530 nm) at 37 °C, under agitation. When indicated, 10 µM of cyclopiazonic acid (CPA) or 10 µM of brussonol were added to the cuvette. Maximal fluorescence (Fmax) was determined after the lysis of with digitonin 0.15% (m/v), and minimal fluorescence (Fmin) was determined by adding 25 mM EGTA in 3 M Tris, pH 8.8, until no further decrease in fluorescence was observed. The cytosolic calcium concentration ([Ca^2+]cyt) was calculated from the fluorescence data (F) using a Kd value of 345 nM using the formula:Ca^2 +cyt = 345 × [(F − Fmin)/(Fmax − F)]
The results (n = 2) were analyzed through One-Way ANOVA with Tukey post-test. All compounds described here were purchased from Sigma-Aldrich (verificar local).

P. falciparum = assay: In vitro combination with artesunate, fixed-ratio isobologram; format: cell-based, Plasmodium falciparum
From the text: A drug combination investigation is important to assess whether the combination of the tested compound with a known antimalarial drug is advantageous or not. In this assay, a fixed molar ratio was used to assess the combination profile of brussonol and artesunate. The range of concentrations tested was based on the assessed IC50 values of both the compounds previously determined. In this method, we first determined the additive isobole, which defined the range of IC50 values pairs to be attributed to an additive (neutral) character of combination. Next, the combination pairs were plotted. Data points distributed below or above the additive isobole indicate a synergic or antagonistic profile, respectively.
This assay was adapted from the work done by Fivelman and collaborators (2004). Consideration of additivity ranges was included in the analysis, as described by Grabovsky and Tallarida (2004). Brussonol and artesunate were diluted and combined in a 96-well plate in […] fixed-ratio combinations (1:0, 6:1, 5:2, 4:3, 3:4, 2:5, 1:6, 0:1). Starting concentrations were 6× IC50 for both compounds. […] The absolute IC50s of brussonol and artesunate (proportions 1:0 and 0:1), the partial IC50s (IC50^brussonol and IC50^artesunate) for each combination (6:1, 5:2, 4:3, 3:4, 2:5, 1:6), and the fractional inhibitory concentrations for each combination were determined.

## CC(C)c1cc2c(c(O)c1O)C[C@@]13CCCC(C)(C)[C@@H]1C[C@@H]2O3 [Compound 1, brussonol]
P. falciparum K1 strain
  IC50: 6.6 ± 0.1 µM
[1]; 10 µM brussonol added after 10 µM CPA reached a plateau
  [Ca^2+]cyt rise after CPA pretreatment: 19 ± 8 nM
[1]; 10 µM compound alone, MOPS Ca^2+ buffer, relative to basal level
  [Ca^2+]cyt rise: 19 ± 4 nM
P. falciparum; brussonol combined with artesunate, proportion 1:1 respective to each IC50
  sum of fractional inhibitory concentrations (FICindex): ~ 1 and 1.1 ± 0.1
P. falciparum; isobologram, fixed-ratio combinations
  combination profile with artesunate: additive effect
